From the supplement of paper PMC10307832

Key:
Experiment in all cases: relative viability (nuclei count vs DMSO), 5 days (fraction); higher = more cells survive
Lapatinib + Luminespib = compound: CS(=O)(=O)CCNCc1ccc(-c2ccc3ncnc(Nc4ccc(OCc5cccc(F)c5)c(Cl)c4)c3c2)o1 [Lapatinib] + CCNC(=O)c1noc(-c2cc(C(C)C)c(O)cc2O)c1-c1ccc(CN2CCOCC2)cc1 [Luminespib] (partner 0.01 µM)
How it was run: (§1)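 For relative viability, nuclei counts in treated wells were divided by those in vehicle wells. Lung cancer cell lines had been pin-tool dosed in 1536-well plates the day after seeding and cultured for 5 days, then fixed and stained in one step (final 0.05% Triton X-100, 1% formaldehyde, 1 ug/ml Hoechst) and imaged at 4×. Doses were one drug alone or a fixed anchor-drug dose plus five library-drug doses (not always all listed) in √10 steps, and values are duplicate-plate medians.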

Lapatinib + Tozasertib = compound: CS(=O)(=O)CCNCc1ccc(-c2ccc3ncnc(Nc4ccc(OCc5cccc(F)c5)c(Cl)c4)c3c2)o1 [Lapatinib] + Cc1cc(Nc2cc(N3CCN(C)CC3)nc(Sc3ccc(NC(=O)C4CC4)cc3)n2)n[nH]1 [Tozasertib] (partner 0.1 µM)
How it was run: as §1

Lapatinib + Olaparib = compound: CS(=O)(=O)CCNCc1ccc(-c2ccc3ncnc(Nc4ccc(OCc5cccc(F)c5)c(Cl)c4)c3c2)o1 [Lapatinib] + O=C(c1cc(Cc2n[nH]c(=O)c3ccccc23)ccc1F)N1CCN(C(=O)C2CC2)CC1 [Olaparib] (partner 8 µM)
How it was run: as §1

Wnt-C59 + Pictilisib = compound: CC1=NC=CC(=C1)C2=CC=C(C=C2)CC(=O)NC3=CC=C(C=C3)C4=CN=CC=C4 [Wnt-C59] + CS(=O)(=O)N1CCN(Cc2cc3nc(-c4cccc5[nH]ncc45)nc(N4CCOCC4)c3s2)CC1 [Pictilisib] (partner 1 µM)
How it was run: as §1

Cell Line	relative viability (Lapatinib + Luminespib; first compound 0.06325 µM)	relative viability (Lapatinib + Luminespib; first compound 0.2 µM)	relative viability (Lapatinib + Luminespib; first compound 0.6325 µM)	relative viability (Lapatinib + Luminespib; first compound 2 µM)	relative viability (Lapatinib + Tozasertib; first compound 0.06325 µM)	relative viability (Lapatinib + Tozasertib; first compound 0.2 µM)	relative viability (Lapatinib + Tozasertib; first compound 0.6325 µM)	relative viability (Lapatinib + Tozasertib; first compound 2 µM)	relative viability (Lapatinib + Olaparib; first compound 0.06325 µM)	relative viability (Lapatinib + Olaparib; first compound 0.2 µM)	relative viability (Lapatinib + Olaparib; first compound 0.6325 µM)	relative viability (Lapatinib + Olaparib; first compound 2 µM)	relative viability (Wnt-C59 + Pictilisib; first compound 0.001 µM)	relative viability (Wnt-C59 + Pictilisib; first compound 0.01 µM)	relative viability (Wnt-C59 + Pictilisib; first compound 0.03162 µM)	relative viability (Wnt-C59 + Pictilisib; first compound 0.1 µM)	relative viability (Lapatinib + Olaparib; first compound 0.02 µM)	relative viability (Lapatinib + Luminespib; first compound 0.02 µM)	relative viability (Lapatinib + Tozasertib; first compound 0.02 µM)
NCI-H1915	0.847	0.832	0.707	0.848	0.367	0.437	0.383	0.319	0.277	0.275	0.243	0.237	0.97	0.922	0.837	0.958			
Calu-6									0.555	0.589	0.525	0.447	0.856	0.973	0.998	0.873	0.612		
LU99A	0.248	0.285	0.251	0.244	0.293	0.239	0.195	0.216	0.282	0.276	0.237	0.234	0.309	0.317	0.316	0.321	0.302	0.253	0.281
LOU-NH91	0.305	0.364	0.346	0.362	0.504	0.524	0.51	0.427	0.748	0.836	0.696	0.617	0.541	0.577	0.508	0.565	0.921	0.368	0.643
NCI-H1993		0.737	0.749	0.476		0.574	0.518	0.486		0.901	0.965	0.661	0.979	0.833	0.902	0.84	0.961	0.824	0.518
NCI-H1703									0.489	0.392	0.595	0.383	0.22	0.218	0.324	0.273	0.312		
NCI-H2405	0.469	0.52	0.567	0.467	0.694	0.807	0.759	0.561	0.763		0.854	0.754	0.433		0.406	0.432		0.696	0.665
NCI-H661	0.925	0.814	0.807	0.584	0.367	0.358	0.348	0.352	0.72	0.708	0.631	0.545	0.414	0.441	0.391	0.442	0.663	0.887	0.377
COR-L 105	0.698	0.857	0.716	0.6	0.351	0.355	0.294	0.244	0.657	0.647	0.669	0.406	0.368	0.315	0.413	0.446	0.603	0.592	0.351
NCI-H1437	1.21	1.16	1.13	1.02	0.411	0.378	0.347	0.367	0.626	0.62	0.609	0.507	0.531	0.617	0.467	0.479	0.62	0.961	0.388
